Source: US20240300935A1, “Nitrogen Oxide Donors of Beraprost Derivative and the Pharmaceutical Compositions with the Use Thereof” (GUANGZHOU KEMROCMED CO., LTD., priority 2021, published 2024)

How the values were obtained:
[1] = In vitro NO release test (Griess method); conditions: 200 μM test compound solution mixed with 200 μM L-cysteine solution, 37° C.
Description: NO was transiently oxidized in aqueous solution using released NO by Griess' method, NO^2− And Griess reagent form a complex, which has strong UV uptake at 540 nm to determine the amount of NO released by the compound. • 1) Preparation of solution: blank solution: 10 mL DMSO and 190 m L PBS mixed; G riess Reagent: sulfonamide (4.0 g), N-(1-naphthalyl) ethylenediamine dihydrochloride (0.2 g) and 10 mL 85% H3PO4 dissolved in 90 mL of distilled water, Blow until clear solution; L-cysteine solution: after accurate weighing of L-cysteine, Add a certain amount of PBS, Prepare a weighed 200 μM solution; Test compound solution: the exact weighing of the test compound, Dissolved in D MSO and diluted to a concentration of 1 mM, Then, when diluted in PBS, To a concentration of 200 μM.
2) Formulation of standard curve equation: prepare sodium nitrite solution concentration: 0 ,0 , 1, 3, 6, 12.5, 25, 50, 100 μmol/L, 150 μL of each concentration, add 50 μL of Griess reagent mix, incubated in 37° C. constant temperature shaker for 30 min, the plate reader measured each tube absorbance at 540 nm, after subtracting the blank solution reading, the standard curve equation . . . 78.56.13.25 • 3) Test compound test: mix 2 mL of the test compound solution and L-cysteine solution, incubate in 37° C. constant temperature shakers for 120 min, take 150 μL of each mixture, add 50 μL of Griess reagent, then incubate in 37° C. constant temperature shaker for 30 min, the microplate measured each tube absorbance at 540 nm, then subtract the blank solution reading and substitute the value into the standard curve equation to obtain NO release.

[2] = tested on: platelet aggregation induced by ADP; experiment: Antiplatelet aggregation effect, ADP-induced, turbidimetry in platelet-rich plasma; type: cell-based; conditions: Homo sapiens, 2 min; platelet rich plasma of healthy subjects; 25 μL of 50 nM compound solution in 225 μL plasma, 37° C. 2 min; ADP final 2 μM; read-out: The rate of platelet aggregation inhibition
Description: • 1) Experimental material: ADP, epinephrine, collagen (bilBio) • 2) Experimental method: blood samples provided by healthy subjects were mixed blood with 3.8% citric acid solution and centrifuged at 160 r/min to obtain platelet-rich plasma. To calibrate the data, the obtained platelet-rich plasma was further centrifuged at 2000 r/min to obtain platelet-poor plasma, stored in a −20° C. refrigerator. Testing was performed using Born I's turbiometry. 225 μL of platelet rich plasma was added to the reaction cup, the embodiment compound was configured as 50 nM solution (25 m M Tris-acetate and 120 m M N a Cl), 25 μL of embodiment compound solution was added and after incubation at 37° C. for 2 min, 5 μL of ADP (final concentration 2 μM) was added for platelet aggregation induction. To assess the degree of platelet aggregation, the maximum absorbance value took the data after ADP, thus calculating the inhibition rate of ADP-induced platelet aggregation by each embodiment compound. According to the data in Table 6 below, the compounds of the present application embodiment all have a good effect of inhibiting the platelet aggregation induced by ADP.

Row | SMILES | 120 min NO^2− [1] | inhibition at 0.005 µM [2]
1 | CC#CCC(C)[C@@H](O)/C=C/[C@H]1[C@@H]2c3cccc(CCCC(=O)OCCCOCC(CO[N+](=O)[O-])O[N+](=O)[O-])c3O[C@@H]2C[C@@H]1O (stereo partly shown) [Compound 31] | 16.7 µM | 67%
2 | CC#CCC(C)[C@@H](O)/C=C/[C@H]1[C@@H]2c3cccc(CCCC(=O)OCCCCCO[N+](=O)[O-])c3O[C@@H]2C[C@@H]1O (stereo partly shown) [Compound 4] | 14.1 µM | 43%
3 | CC#CCC(C)[C@@H](O)/C=C/[C@H]1[C@@H]2c3cccc(CCCC(=O)OCCCCCCO[N+](=O)[O-])c3O[C@@H]2C[C@@H]1O (stereo partly shown) [Compound 5] | 11.8 µM | 64%
4 | CC#CCC(C)[C@@H](O)/C=C/[C@H]1[C@@H]2c3cccc(CCCC(=O)OCOC(=O)CCCCO[N+](=O)[O-])c3O[C@@H]2C[C@@H]1O (stereo partly shown) [Compound 16] | 12.1 µM | 81%
5 | CC#CCC(C)[C@@H](O)/C=C/[C@H]1[C@@H]2c3cccc(CCCC(=O)OCC(CO[N+](=O)[O-])CO[N+](=O)[O-])c3O[C@@H]2C[C@@H]1O (stereo partly shown) [Compound 28] | 14.8 µM | 47%
6 | CC#CCC(C)[C@@H](O)/C=C/[C@H]1[C@@H]2c3cccc(CCCC(=O)OCCCOC(=O)c4cccc(CO[N+](=O)[O-])c4)c3O[C@@H]2C[C@@H]1O (stereo partly shown) [Compound 26] | 12.6 µM | 22%
7 | CC#CCC(C)[C@@H](O)/C=C/[C@H]1[C@@H]2c3cccc(CCCC(=O)OCCOC(=O)CO[N+](=O)[O-])c3O[C@@H]2C[C@@H]1O (stereo partly shown) [Compound 17] | 7.6 µM | 59%
8 | CC#CCC(C)[C@@H](O)/C=C/[C@H]1[C@@H]2c3cccc(CCCC(=O)OCCCOC(=O)CCCO[N+](=O)[O-])c3O[C@@H]2C[C@@H]1O (stereo partly shown) [Compound 22] | 13.7 µM | 52%
9 | CC#CCC(C)[C@@H](O)/C=C/[C@H]1[C@@H]2c3cccc(CCCC(=O)OCCCOC(=O)CCO[N+](=O)[O-])c3O[C@@H]2C[C@@H]1O (stereo partly shown) [Compound 18] | 8.0 µM | 66%
10 | CC#CCC(C)[C@@H](O)/C=C/[C@H]1[C@@H]2c3cccc(CCCC(=O)OCCC(CO[N+](=O)[O-])CO[N+](=O)[O-])c3O[C@@H]2C[C@@H]1O (stereo partly shown) [Compound 29] | 16.2 µM | 56%
11 | CC#CCC(C)[C@@H](O)/C=C/[C@H]1[C@@H]2c3cccc(CCCC(=O)OCCOCCO[N+](=O)[O-])c3O[C@@H]2C[C@@H]1O (stereo partly shown) [Compound 8] | 14.8 µM | 61%
12 | CC#CCC(C)[C@@H](O)/C=C/[C@H]1[C@@H]2c3cccc(CCCC(=O)OCOCCCO[N+](=O)[O-])c3O[C@@H]2C[C@@H]1O (stereo partly shown) [Compound 7] | 17.7 µM | 44%
13 | CC#CCC(C)[C@@H](O)/C=C/[C@H]1[C@@H]2c3cccc(CCCC(=O)OCCCCO[N+](=O)[O-])c3O[C@@H]2C[C@@H]1O (stereo partly shown) [Compound 3] | 16.6 µM | 57%
14 | CC#CCC(C)[C@@H](O)/C=C/[C@H]1[C@@H]2c3cccc(CCCC(=O)OCOC(=O)CCCO[N+](=O)[O-])c3O[C@@H]2C[C@@H]1O (stereo partly shown) [Compound 12] | 8.5 µM | 42%
15 | CC#CCC(C)[C@@H](O)/C=C/[C@H]1[C@@H]2c3cccc(CCCC(=O)OCCCCOC(=O)CO[N+](=O)[O-])c3O[C@@H]2C[C@@H]1O (stereo partly shown) [Compound 23] | 15.5 µM | 56%
16 | CC#CCC(C)[C@@H](O)/C=C/[C@H]1[C@@H]2c3cccc(CCCC(=O)OCCCO[N+](=O)[O-])c3O[C@@H]2C[C@@H]1O (stereo partly shown) [Compound 2] | 14.3 µM | 66%

Row | SMILES | 120 min NO^2− [1] | inhibition at 0.005 µM [2]
17 | CC#CCC(C)[C@@H](O)/C=C/[C@H]1[C@@H]2c3cccc(CCCC(=O)OCOc4c(S(=O)(=O)c5ccccc5)no[n+]4[O-])c3O[C@@H]2C[C@@H]1O (stereo partly shown) [Compound 32] | 20.4 µM | 55%
18 | CC#CCC(C)[C@@H](O)/C=C/[C@H]1[C@@H]2c3cccc(CCCC(=O)OCCOC(=O)CCO[N+](=O)[O-])c3O[C@@H]2C[C@@H]1O (stereo partly shown) [Compound 20] | 10.0 µM | 45%
19 | CC#CCC(C)[C@@H](O)/C=C/[C@H]1[C@@H]2c3cccc(CCCC(=O)OCOCCO[N+](=O)[O-])c3O[C@@H]2C[C@@H]1O (stereo partly shown) [Compound 6] | 17.8 µM | 39%
20 | CC#CCC(C)[C@@H](O)/C=C/[C@H]1[C@@H]2c3cccc(CCCC(=O)OCCCCOC(=O)c4cccc(CO[N+](=O)[O-])c4)c3O[C@@H]2C[C@@H]1O (stereo partly shown) [Compound 27] | 11.9 µM | 35%
21 | CC#CCC(C)[C@@H](O)/C=C/[C@H]1[C@@H]2c3cccc(CCCC(=O)OCCOc4no[n+]([O-])c4S(=O)(=O)c4ccccc4)c3O[C@@H]2C[C@@H]1O (stereo partly shown) [Compound 33] | 14.2 µM | 82%
22 | CC#CCC(C)[C@@H](O)/C=C/[C@H]1[C@@H]2c3cccc(CCCC(=O)OCCCCOC(=O)CCO[N+](=O)[O-])c3O[C@@H]2C[C@@H]1O (stereo partly shown) [Compound 19] | 11.3 µM | 69%
23 | CC#CCC(C)[C@@H](O)/C=C/[C@H]1[C@@H]2c3cccc(CCCC(=O)OCOCC(CO[N+](=O)[O-])O[N+](=O)[O-])c3O[C@@H]2C[C@@H]1O (stereo partly shown) [Compound 30] | 17.8 µM | 52%
24 | CC#CCC(C)[C@@H](O)/C=C/[C@H]1[C@@H]2c3cccc(CCCC(=O)OCOC(=O)O[N+](=O)[O-])c3O[C@@H]2C[C@@H]1O (stereo partly shown) [Compound 9] | 18.2 µM | 52%
25 | CC#CCC(C)[C@@H](O)/C=C/[C@H]1[C@@H]2c3cccc(CCCC(=O)OCCCCc4ccc(CO[N+](=O)[O-])cc4)c3O[C@@H]2C[C@@H]1O (stereo partly shown) [Compound 13] | 10.1 µM | 61%
26 | CC#CCC(C)[C@@H](O)/C=C/[C@H]1[C@@H]2c3cccc(CCCC(=O)OCCOC(=O)c4cccc(CO[N+](=O)[O-])c4)c3O[C@@H]2C[C@@H]1O (stereo partly shown) [Compound 25] | 10.7 µM | 35%
27 | CC#CCC(C)[C@@H](O)/C=C/[C@H]1[C@@H]2c3cccc(CCCC(=O)OCCO[N+](=O)[O-])c3O[C@@H]2C[C@@H]1O (stereo partly shown) [Compound 1] | 15.5 µM | 78%
28 | CC#CCC(C)[C@@H](O)/C=C/[C@H]1[C@@H]2c3cccc(CCCC(=O)OCOC(=O)CCO[N+](=O)[O-])c3O[C@@H]2C[C@@H]1O (stereo partly shown) [Compound 10] | 11.3 µM | 54%
29 | CC#CCC(C)[C@@H](O)/C=C/[C@H]1[C@@H]2c3cccc(CCCC(=O)OCOC(=O)Cc4ccc(CO[N+](=O)[O-])cc4)c3O[C@@H]2C[C@@H]1O (stereo partly shown) [Compound 24] | 15.8 µM | 47%
30 | CC#CCC(C)[C@@H](O)/C=C/[C@H]1[C@@H]2c3cccc(CCCC(=O)OCCOC(=O)C(C)CO[N+](=O)[O-])c3O[C@@H]2C[C@@H]1O (stereo partly shown) [Compound 21] | 11.1 µM | 81%
31 | CC#CCC(C)[C@@H](O)/C=C/[C@H]1[C@@H]2c3cccc(CCCC(=O)OCCCc4ccc(CO[N+](=O)[O-])cc4)c3O[C@@H]2C[C@@H]1O (stereo partly shown) [Compound 11] | 10.1 µM | 67%
32 | CC#CCC(C)[C@@H](O)/C=C/[C@H]1[C@@H]2c3cccc(CCCC(=O)OCCC4CCC(CO[N+](=O)[O-])CC4)c3O[C@@H]2C[C@@H]1O (stereo partly shown) [Compound 14] | 9.6 µM | 48%
